These results are taken from patent publication US6875760B2 (Novo Nordisk A/S, priority 1999, dated 2005).

Where two headings read alike, the source gives them in different places.

In this experiment the target is T1, human glucagon receptor (Homo sapiens, UniProt P47871).
T1 construct: expressed in transfected cells; host or cells: BHK (baby hamster kidney) cells
In words: Glucagon Binding Assay (III). The note with it: BHK cell membranes, WGA SPA beads, 125I-glucagon. The protocol: BHK (baby hamster kidney cell line) cells were transfected with the human glucagon receptor and a membrane preparation of the cells was prepared.
All steps in the membrane preparation were kept on ice or performed at 4° C. BHK cells were harvested and centrifuged. […] The pellet was resuspended in homogenisation buffer, homogenised 2×10 sec (Polytron) and additional homogenisation buffer was added. […] (Polytron).
The glucagon binding assay was carried out in opti plates (Polystyrene Microplates, Packard). […] Finally 50 μL WGA beads containing 1 mg beads were transferred to the well. The assay was incubated for 4 hours on a shaker and then settled for 8-48 hours. The opti plates were counted in a Topcounter. Non-specific binding was determined with 500 nM of glucagon.

Setting [1] is: read-out: Glu Bd Assay (III) IC50.

T1 sequence (P47871 26-477): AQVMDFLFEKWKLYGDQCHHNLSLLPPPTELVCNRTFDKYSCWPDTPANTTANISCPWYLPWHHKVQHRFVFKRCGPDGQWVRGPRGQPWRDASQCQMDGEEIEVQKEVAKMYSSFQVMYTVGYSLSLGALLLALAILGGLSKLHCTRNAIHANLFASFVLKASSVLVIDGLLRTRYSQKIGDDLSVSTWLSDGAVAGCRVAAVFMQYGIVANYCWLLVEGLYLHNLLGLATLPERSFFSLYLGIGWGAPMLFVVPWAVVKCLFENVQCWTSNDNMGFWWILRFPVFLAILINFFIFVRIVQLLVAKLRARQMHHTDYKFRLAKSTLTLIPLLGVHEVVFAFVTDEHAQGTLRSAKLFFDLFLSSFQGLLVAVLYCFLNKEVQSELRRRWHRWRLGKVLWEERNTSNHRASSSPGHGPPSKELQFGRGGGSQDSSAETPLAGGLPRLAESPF

Broadly, the IC50 is the concentration that gives 50% inhibition. As to `CCCC1CCC(N(Cc2ccc(C(=O)NCCC(=O)O)cc2)C(=O)Nc2ccc(OC(F)(F)F)cc2)CC1` (stereo not shown) [Example 75, 3-{4-[1-(4-Propylcyclohexyl)-3-(4-trifluoromethoxyphenyl)ureidomethyl]benzoylamino}propionic acid], under setting [1], the IC50 came out at 177 nM.

Turning to `CCC[C@H]1CC[C@H](N(Cc2ccc(C(=O)NCCC(=O)O)cc2)C(=O)Nc2ccc(OC(F)(F)F)cc2)CC1` [Example 76, 3-{4-[1-(4-trans-Propylcyclohexyl)-3-(4-trifluoromethoxyphenyl)ureidomethyl]benzoylamino}propionic acid], under setting [1], the half-maximal inhibitory concentration (IC50) came out at 135 nM.

With `CCC[C@H]1CC[C@@H](N(Cc2ccc(C(=O)NCCC(=O)O)cc2)C(=O)Nc2ccc(OC(F)(F)F)cc2)CC1` [Example 77, 3-{4-[1-(4-cis-Propylcyclohexyl)-3-(4-trifluoromethoxyphenyl)ureidomethyl]benzoylamino}propionic acid], the IC50 under setting [1] worked out at 294 nM.

Consider `CCC(C)(C)[C@H]1CC[C@H](N(Cc2ccc(C(=O)NCCC(=O)O)cc2)C(=O)Nc2ccc(OC(F)(F)F)cc2)CC1` [Example 78, 3-{4-[1-[4-trans-(1,1-Dimethylpropyl)cyclohexyl]-3-(4-trifluoromethoxyphenyl)ureidomethyl]benzoylamino}propionic acid], for which the IC50 under setting [1] was 49 nM.

In the case of `O=C(O)CCNC(=O)c1ccc(CN(C(=O)Nc2ccc(OC(F)(F)F)cc2)C2CCC3CCCCC3C2)cc1` (stereo not shown) [Example 79, 3-{4-[1-(Decahydronaphthalen-2-yl)-3-(4-trifluoromethoxyphenyl)ureidomethyl]benzoylamino}propionic acid], the IC50 under setting [1] turned out to be 200 nM.

Take `O=C(O)CCNC(=O)c1ccc(CN(C(=O)Nc2ccc(OC(F)(F)F)cc2)[C@H]2CC[C@@H](c3ccccc3)CC2)cc1` [Example 80, 3-{4-[1-(4-cis-Phenylcyclohexyl)-3-(4-trifluoromethoxyphenyl)ureidomethyl]benzoylamino}propionic acid]: the IC50 under setting [1] is 229 nM.

As for `O=C(O)CCNC(=O)c1ccc(CN(C(=O)Nc2ccc(OC(F)(F)F)cc2)[C@H]2CC[C@H](c3ccccc3)CC2)cc1` [Example 81, 3-{4-[1-(4-trans-Phenylcyclohexane)-3-(4-trifluoromethoxyphenyl)ureidomethyl]benzoylamino}propionic acid], the IC50 under setting [1] is 143 nM.

Turning to `CC(C)C1CCC(N(Cc2ccc(C(=O)NCCC(=O)O)cc2)C(=O)Nc2ccc(OC(F)(F)F)cc2)CC1` (stereo not shown) [Example 82, 3-{4-[1-(4-Isopropylcyclohexyl)-3-(4-trifluoromethoxyphenyl)ureidomethyl]benzoylamino}propionic acid], the IC50 under setting [1] came out at 59 nM.

In the case of `CCC1CCC(N(Cc2ccc(C(=O)NCCC(=O)O)cc2)C(=O)Nc2ccc(OC(F)(F)F)cc2)CC1` (stereo not shown) [Example 83, 3-{4-[1-(4-Ethylcyclohexyl)-3-(4-trifluoromethoxyphenyl)ureidomethyl]benzoylamino}propionic acid], the IC50 under setting [1] was 203 nM.

Turning to `CCCCOC(=O)c1ccc(NC(=O)N(Cc2ccc(C(=O)NCCC(=O)O)cc2)C2CCC(C(C)C)CC2)cc1` (stereo not shown) [Example 84, 4-[3-[4-(2-Carboxyethylcarbamoyl)benzyl]-3-(4-isopropylcyclohexyl)ureido]benzoic acid butyl ester], the IC50 under setting [1] came out at 261 nM.

Take `CCC1CCC(N(Cc2ccc(C(=O)NCCC(=O)O)cc2)C(=O)Nc2cc(C(F)(F)F)cc(C(F)(F)F)c2)C1` (stereo not shown) [Example 85, 3-{4-[3-(3,5-Bis(trifluoromethyl)phenyl)-1-(3-ethylcyclopentyl)ureidomethyl]benzoylamino}propionic acid]: the IC50 under setting [1] came out at 494 nM.

Turning to `O=C(O)CCNC(=O)c1ccc(CN(C(=O)Nc2cc(C(F)(F)F)cc(C(F)(F)F)c2)C2CCc3ccccc3C2)cc1` (stereo not shown) [Example 86, 3-{4-[3-(3,5-Bis(trifluoromethyl)phenyl)-1-(1,2,3,4-tetrahydronaphthalen-2-yl)ureidomethyl]benzoylamino}propionic acid], the 50% inhibitory concentration (IC50) under setting [1] was determined as 423 nM.

On to `CCC(C)(C)C1CCC(N(Cc2ccc(C(=O)NCCC(=O)O)cc2)C(=O)Nc2ccc(OC(F)(F)F)cc2)CC1` (stereo not shown) [Example 87, 3-{4-[1-[4-(1,1-Dimethylpropyl)cyclohexyl]-3-(4-trifluoromethoxyphenyl)ureidomethyl]benzoylamino}propionic acid], for which the IC50 under setting [1] amounted to 43 nM.

As to `CCCC1(CCC)CCC(N(Cc2ccc(C(=O)NCCC(=O)O)cc2)C(=O)Nc2ccc(OC(F)(F)F)cc2)CC1` [Example 88, 3-{4-[1-(4,4-Dipropylcyclohexyl)-3-(4-trifluoromethoxyphenyl)ureidomethyl]benzoylamino}propionic acid], under setting [1], the IC50 came out at 137 nM.

As to `O=C(O)CCNC(=O)c1ccc(CN(C(=O)Nc2ccc(OC(F)(F)F)cc2)C2CCC3(CC2)OCCO3)cc1` [Example 89, 3-{4-[1-(1,4-Dioxaspiro[4.5]dec-8-yl)-3-(4-trifluoromethoxyphenyl)ureidomethyl]benzoylamino}propionic acid], the IC50 under setting [1] is 1210 nM.

For `CC(C)(C)C1CCC(N(Cc2ccc(C(=O)N(CCC(=O)O)CC3CC3)cc2)C(=O)Nc2ccc(OC(F)(F)F)cc2)CC1` (stereo not shown) [Example 90, 3-({4-[1-(4-tert-Butylcyclohexyl)-3-(4-trifluoromethoxyphenyl)ureidomethyl]benzoyl}cyclopropylmethyl)aminopropionic acid], the IC50 under setting [1] came to 4200 nM.

As to `CCN(CCC(=O)O)C(=O)c1ccc(CN(C(=O)Nc2ccc(OC(F)(F)F)cc2)C2CCC(C(C)(C)C)CC2)cc1` (stereo not shown) [Example 91, 3-({4-[1-(4-tert-Butylcyclohexyl)-3-(4-trifluoromethoxyphenyl)ureidomethyl]benzoyl}ethylamino)propionic acid], under setting [1], the IC50 came out at 2800 nM.

The compound `CC(C)(C)[C@H]1CC[C@@H](N(Cc2ccc(C(=O)NCCC(=O)O)cc2)C(=O)Nc2ccc(OC(F)(F)F)cc2)CC1` [Example 93, 3-{4-[1-(cis-4-tert-Butylcyclohexyl)-3-(4-trifluoromethoxy-phenyl)ureidomethyl]benzoylamino}propionic acid] showed an IC50 (Glu Bd Assay (III) IC50 (nM)) of 47 nM.

Regarding `CC(C)(C)[C@H]1CC[C@H](N(Cc2ccc(C(=O)NCC(=O)O)cc2)C(=O)Nc2ccc(OC(F)(F)F)cc2)CC1` [Example 95, 3-{4-[1-(trans-4-tert-Butylcyclohexyl)-3-(4-trifluoromethoxyphenyl)ureidomethyl]benzoylamino}acetic acid], the IC50 (Glu Bd Assay (III) IC50 (nM)) was found to be 1700 nM.

Take `CCCCC(CC)CN(Cc1ccc(C(=O)NCCC(=O)O)cc1)C(=O)Nc1ccc(OC(F)(F)F)cc1` (stereo not shown) [Example 96, 3-{4-[1-(2-Ethylhexyl)-3-(4-trifluoromethoxyphenyl)ureidomethyl]benzoylamino}propionic acid]: under setting [1], the IC50 was 137 nM.

For `O=C(O)CCNC(=O)c1ccc(CN(C(=O)Nc2ccc(OC(F)(F)F)cc2)[C@H]2CC[C@H](OC(=O)Nc3ccc(OC(F)(F)F)cc3)CC2)cc1` [Example 97, 3-{4-[1-(trans-4-(4-Trifluoromethoxyphenylcarbamoyloxy)cyclohexyl)-3-(4-trifluoromethoxyphenyl)ureidomethyl]benzoylamino}propionic acid], the IC50 under setting [1] turned out to be 1650 nM.

For `COC(=O)CCNC(=O)c1ccc(CN(C(=O)Nc2ccc(OC(F)(F)F)cc2)[C@H]2CC[C@H](C(C)(C)C)CC2)cc1` [Example 98, 3-{4-[1-(trans-4-tert-Butylcyclohexyl)-3-(4-trifluoromethoxyphenyl)ureidomethyl]benzoylamino}propionic acid methyl ester], under setting [1], the IC50 was 83 nM.

For `CC(C)(C)C1CCC(N(Cc2ccc(C(=O)NCCC(=O)O)cc2)C(=O)Nc2ccc(C#N)cc2)CC1` (stereo not shown) [Example 99, 3-{4-[1-(4-tert-Butylcyclohexyl)-3-(4-cyanophenyl)ureidomethyl]benzoylamino}propionic acid], where the note is “Glu Bd Assay (III) IC50 (nM)”, the concentration for half-maximal inhibition (IC50) was 1050 nM.

Regarding `CC(C)(C)[C@H]1CC[C@H](N(Cc2ccc(C(=O)NCCC(=O)O)cc2)C(=O)Nc2cc(C(F)(F)F)cc(C(F)(F)F)c2)CC1` [Example 100, 3-{4-[3-(3,5-Bis-trifluoromethylphenyl)-1-(trans-4-tert-butylcyclohexyl)ureidomethyl]benzoylamino}propionic acid], the IC50 under setting [1] is 50 nM.

For `CC(C)(C)[C@H]1CC[C@H](N(Cc2ccc(C(=O)NCCC(=O)O)cc2)C(=O)Nc2cc(C(F)(F)F)cc(C(F)(F)F)c2)CC1` [Example 237, 3-{4-[3-(3,5-Bis-trifluoromethylphenyl)-1-(trans-4-tert-butylcyclohexyl)ureidomethyl]benzoylamino}propionic acid], under “Glu Bd Assay (III) IC50 (nM)”, the IC50 is 56 nM.

As for `CC(C)(C)[C@H]1CC[C@H](N(Cc2ccc(C(=O)NCCC(=O)O)cc2)C(=O)Nc2cc(Cl)c(Cl)c(Cl)c2)CC1` [Example 238, 3-{4-[1-(trans-4-tert-Butylcyclohexyl)-3-(3,4,5-trichlorophenyl)ureidomethyl]benzoylamino}propionic acid], the IC50 under setting [1] came to 103 nM.

With `CCCCNS(=O)(=O)c1ccc(NC(=O)N(Cc2ccc(C(=O)NCCC(=O)O)cc2)[C@H]2CC[C@H](C(C)(C)C)CC2)cc1` [Example 239, 3-{4-[1-(trans-4-tert-Butylcyclohexyl)-3-(4-butylsulfamoylphenyl)ureidomethyl]benzoylamino}propionic acid], the IC50 under setting [1] was 1890 nM.

In turn, `CCN(CC)C(=O)c1ccc(NC(=O)N(Cc2ccc(C(=O)NCCC(=O)O)cc2)[C@H]2CC[C@H](C(C)(C)C)CC2)cc1` [Example 240, 3-{4-[1-(trans-4-tert-Butylcyclohexyl)-3-(4-diethylcarbamoylphenyl)ureidomethyl]benzoylamino}propionic acid] came in with an IC50 (Glu Bd Assay (III) IC50 (nM)) of 2430 nM.
